In patent publication US11801232B2, “Targeting of ARID1A-deficient cancers by inhibiting de novo pyrimidine synthesis pathway” (YALE UNIVERSITY, priority 2019, dated 2023):

System: γ-H2AX
Assay: Immunoblot and immunofluorescence of γ-H2AX in ES2 cells
Type: cell-based, human
Conditions: ARID1A-knockdown ES2 cells; teriflunomide 15 μM, AZD6738 1.5 μM, VX-970 0.075 μM; 24-72 h
Description: Immunoblot Analysis and Co-Immunoprecipitation Assay. For immunoblotting experiments, cells were lysed in BC200 lysis buffer [20 mM Tris-HCl (pH 7.5), 200 mM NaCl, 1 mM EDTA, 0.2% Nonidet P-40 (NP-40), freshly added complete protease inhibitor cocktail (from Roche), and PhosSTOP phosphatase inhibitor (from Roche)] or in boiling SDS lysis buffer [1% SDS and 10 mM Tris-CI (pH 7.5)], as previously described^21. Protein concentrations were quantified using a modified Lowry assay, and equal protein amounts were loaded onto a 10% SDS-PAGE gel and separated by gel electrophoresis, followed by transfer to a nitrocellulose membrane. The nitrocellulose membrane was stained with Ponceau S to confirm equal protein loading and then blocked in 2% BSA in Tris-buffered saline with 0.1% Tween-20 (tris buffered saline with tween, or TBST). Primary antibody incubation was done for 2 h at room temperature or, for phospho-specific antibodies, overnight at 4° C. An HRP-conjugated secondary antibody was used, followed by detection using enhanced chemiluminescence substrate (from Pierce). Autoradiograph images were scanned and saved as unmodified TIFF images, and densitometry analysis was done with ImageJ (from NIH) software.
Immunofluorescence. […] Images of cells were acquired using a BZ-X710 fluorescence microscope (from KEYENCE) and analyzed using ImageJ (from NIH).

## C[C@@H]1COCCN1c1cc(C2([S@](C)(=N)=O)CC2)nc(-c2cc[nH]c3nccc2-3)n1 [AZD6738]
  γ-H2AX protein levels: increased
